The source of these data is patent US5091399A, “Antimicrobial compounds and methods of use” (Rohm and Haas Company, priority 1990, dated 1992).

Values after ≈ are worked out from the molar mass of the structure shown. Bounds are passed on as bounds.

What all share (assay): MIC test (biocide), serial dilution in Trypticase Soy Broth
Assay type in all cases: cell-based

One assay has as its system Aspergillus niger. Particulars: pH 7.0, starting concentration 500 ppm. How it is done: (§1) Efficacy tests against eight fungi and four bacteria was carried out. A minimum inhibitory concentration (MIC) value was obtained using Trypticase Soy Broth, pH 7.0, and by preparing serial dilutions with a starting concentration of 500 ppm. A stock solution of the test compound was made in dimethyl sulfoxide (DMSO) or acetone. The MIC's of the compounds of this invention against the test organisms are shown in Table 3. |Test was run in Trypticase Soy Broth, pH 7.0 Starting concentration = 500

The subject of another assay is Aureobasidium pullulans. Particulars: pH 7.0, starting concentration 500 ppm. How it is done: as §1
In another assay the test system is Chaetomium globosum. Particulars: pH 7.0, starting concentration 500 ppm. On the procedure: as §1
A further assay relates to Cladosporium resinae. Particulars: Amorphotheca resinae, pH 7.0, starting concentration 500 ppm. On the procedure:
as §1

Another assay relates to Escherichia coli. Particulars: pH 7.0, starting concentration 500 ppm. How it is done:
as §1

In another assay the test system is Gleophyllum trabeum. Particulars: pH 7.0, starting concentration 500 ppm. How it is done: as §1
The next assay has as its system Penicillium funiculosum. Particulars: Talaromyces funiculosus, pH 7.0, starting concentration 500 ppm. On the procedure: as §1
In a further assay the test system is Pseudomonas aeruginosa. Particulars: pH 7.0, starting concentration 500 ppm. How it is done: as §1
For the next assay, the system named is Pseudomonas fluorescens. Particulars: pH 7.0, starting concentration 500 ppm. On the procedure: as §1
The next assay deals with Rhodotorula rubra. Particulars: pH 7.0, starting concentration 500 ppm. On the procedure:
as §1

The test system of the next assay is Saccharomyces cerevisiae. Particulars: pH 7.0, starting concentration 500 ppm. How it is done: as §1
The next assay relates to Staphylococcus aureus. Particulars: pH 7.0, starting concentration 500 ppm. How it is done:
as §1

The next assay concerns Chorella. Particulars: pH 7.0, starting concentration 500 ppm. How it is done:
as §1

The MIC is the least concentration at which growth counts as inhibited. High values mean weaker potency, low ones greater potency.

Turning to `Cn1sc(Sc2nc3ccccc3s2)cc1=O` [Compound 1, (2-methyl-4-isothiazolin-3-on-5-yl)-(benzothiazol-2'-yl)sulfide], the minimal inhibitory concentration (MIC) against Aspergillus niger is 8 µg/mL (≈ 28.5 µM); against Aureobasidium pullulans it was 16 µg/mL (≈ 57.1 µM); against Chaetomium globosum, 32 µg/mL (≈ 114 µM); with Cladosporium resinae it was 1 µg/mL (≈ 3.57 µM); with Escherichia coli it was 500 µg/mL (≈ 1780 µM); against Gleophyllum trabeum it was less than 0.1 µg/mL. For the same molecule, the MIC was 8 µg/mL (≈ 28.5 µM) in the assay on Penicillium funiculosum; more than 500 µg/mL in the assay on Pseudomonas aeruginosa; 8 µg/mL (≈ 28.5 µM) against Pseudomonas fluorescens; 16 µg/mL (≈ 57.1 µM) in the assay with Rhodotorula rubra; 8 µg/mL (≈ 28.5 µM) in the assay on Saccharomyces cerevisiae; 4 µg/mL (≈ 14.3 µM) against Staphylococcus aureus.

Turning to `CCCCCCCCn1sc(Sc2nc3ccccc3s2)c(Cl)c1=O` [Compound 2, [4-chloro-2-(n-octyl)-4-isothiazolin-3-on-5-yl]-(benzothiazol-2'-yl)sulfide], the MIC is 63 µg/mL (≈ 153 µM) against Aspergillus niger; 32 µg/mL (≈ 77.5 µM) in the assay with Aureobasidium pullulans; 4 µg/mL (≈ 9.68 µM) against Chorella; more than 250 µg/mL in the assay with Escherichia coli; more than 250 µg/mL in the assay on Pseudomonas aeruginosa; 1 µg/mL (≈ 2.42 µM) in the assay with Staphylococcus aureus.

For the molecule `Cc1c(Sc2nc3ccccc3s2)sn(-c2ccc(Cl)cc2)c1=O` [Compound 3, [4-methyl-2-(4-chlorophenyl)-4-isothiazolin-3-on-5-yl]-(benzothiazol-2'-yl)sulfide], the minimal inhibitory concentration (MIC) with Aspergillus niger was determined as 12.5 µg/mL (≈ 32 µM); against Pseudomonas aeruginosa, 12.5 µg/mL (≈ 32 µM); in the assay with Pseudomonas fluorescens it was 0.4 µg/mL (≈ 1.02 µM).
